Patent publication US6319910A, “Method for inhibiting cyclooxygenase-2 and tumor necrosis factor alpha” (Hospital for Joint Diseases, priority 1998, dated 2001)
Entries after “also recorded” stand apart in the source; their conditions may differ.

How the values were obtained:
RAW 264.7 cells [1] = assay: PGE2 production/accumulation in LPS-stimulated RAW 264.7 cells; assay type: cell-based, murine; settings: for inhibition at 10 µg/mL: Mus musculus, RAW264.7, 16 h, read-out: PGE2 % Inhibition or (Increase)
Description: (§1) Murine macrophages (RAW 263.7 cells) which were grown in Dulbecco's modified eagle medium (DMEM) containing 10% fetal bovine serum, 2 mM glutamine, 50 U/ml penicillin and 50 μg/ml streptomycin, were stimulated with 100 ng/ml LPS to induce both NOS and COX-2 at 16 hr. […] The data presented in FIG. 1 represents mean±SD as examined by T test were n=3.
(§2) The effects of CMTs 1, 2, 3, 5 and 8 on PGE2 and NO accumulation in RAW 264.7 cells were further evaluated as described above for CMT-3. […]

RAW 264.7 cells [2] = assay: Nitrite (NO) production/accumulation in LPS-stimulated RAW 264.7 cells; assay type: cell-based, murine; settings: LPS 100 ng/ml; for Nitrite / inhibition at 10 µg/mL: compound 10 μg/ml; for Effect on NO production: words; for inhibition at 10 µg/mL: Mus musculus, RAW264.7, 16 h
Description: as §1, §2

bovine chondrocytes = assay: Nitrite (NO) production in LPS stimulated bovine chondrocytes; assay type: cell-based; settings: FIGS. 3 and 9; LPS 100 μg/ml; words
OA-affected cartilage = assay: Spontaneous nitrite/nitric oxide release by OA-affected cartilage (ex vivo organ culture); assay type: cell-based, human
Description: Human osteoarthritis affected cartilage spontaneously release nitric oxide (NO) and PGE2 in the medium as previously reported (Amin et al, 1995a; 1997a). The OA-organ cultures were set up as described (Amin et al, 1995a; 1997a). Briefly, total knee articular cartilage from tibial plateau and femoral condyle were harvested from OA-affected patients. The cartilage was mixed and cut into 3-mm discs and 4-6 discs were placed in triplicate or quadruplicate, in a 24-well plate in 2.0 ml of Ham's F-12 medium supplemented with 0.2% endotoxin free human albumin, 10 mM Hepes pH 7.4 and antibiotics in the presence of various modulators, as previously described (Amin et al, 1995a; 1997a). CMT-8 was used at pharmacologically relevant concentrations in DMSO (<0.01% final concentration) as carrier. An equivalent amount of DMSO was also added in the control cultures.
The p value between control and CMT-8 treated values for PGE2≤0.1 (insignificant) whereas the p values between NMMA treated cartilage and CMT-8 treated cartilage was ≤0.001 (significant). The data are represented as mean±SD as examined by T test when n=3. Data represent±SD value as determined by Student's t test n=4. The P values described are compared with control unstimulated OA-cartilage. The data represents one of the two similar experiments. P values for PGE2 and Nitrite=^a≤0.5; ^b≤0.1; ^c≤0.05; ^d≤0.01.

COX-2 [3] = molecular target: T1, COX-2 (Mus musculus, UniProt Q05769); assay: COX-2 specific activity in cell-free extracts of LPS-stimulated RAW 264.7 cells (PGE2 by RIA); assay type: biochemical, murine
T1 construct: using total unfractionated cell extracts; endogenous in cells; host or cells: RAW 264.7 cells, LPS-induced; cell-free extract
T1 sequence (Q05769 18-604): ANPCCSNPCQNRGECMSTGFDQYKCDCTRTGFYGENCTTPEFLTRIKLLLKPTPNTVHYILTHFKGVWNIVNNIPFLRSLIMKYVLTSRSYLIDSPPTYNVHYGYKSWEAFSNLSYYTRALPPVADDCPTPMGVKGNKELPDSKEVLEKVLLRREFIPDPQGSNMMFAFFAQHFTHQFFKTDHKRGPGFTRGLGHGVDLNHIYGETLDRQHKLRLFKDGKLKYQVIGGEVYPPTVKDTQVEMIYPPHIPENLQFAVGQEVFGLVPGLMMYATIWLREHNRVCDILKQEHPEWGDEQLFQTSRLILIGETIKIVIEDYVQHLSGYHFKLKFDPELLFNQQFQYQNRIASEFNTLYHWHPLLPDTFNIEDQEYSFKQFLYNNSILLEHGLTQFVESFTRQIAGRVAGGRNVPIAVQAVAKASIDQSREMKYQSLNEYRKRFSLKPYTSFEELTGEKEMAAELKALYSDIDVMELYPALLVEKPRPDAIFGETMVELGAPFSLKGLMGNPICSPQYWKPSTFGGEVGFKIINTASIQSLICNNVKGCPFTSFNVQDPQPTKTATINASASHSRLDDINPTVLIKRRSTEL
Description: Raw 264.7 cells were stimulated with LPS and cell-free extracts were prepared as follows. RAW 264.7 cells were induced with LPS (100 ng/ml) in the presence or absence of tetracyclines or hydrocortisone for 14-20 hours. Following induction, the cells were pelleted at 4° C. and resuspended in Tris buffer: 10 mM, pH 7.4 containing 10 μg/ml each of chymostatin, antipain, leupeptin and pepstatin, 1 mM DDT and 1 mM PMSF. Cells were lysed in a Polytron PA 1200 homogenizer (Kinematica AG, Switzerland) with the cocktail of protease inhibitors after 3 cycles of rapid freeze-thawing. The lysate was centrifuged at 18,000 at 4° C. in an eppendorf centrifuge, and the resulting supernatant was used as cell-free extracts. The protein was measured by BCA assay reagent (Pierce, Rockford, Ill.) using BSA as standard. […] The specific enzyme activity was defined as ng of PGE2 released/mg protein/37° C. for 20 minutes.
RAW 264.7 cells were stimulated with 1 μg/ml of LPS for 16 hours and cell-free extracts were prepared as described above. The extracts were incubated with different modulators for 20 minutes at 37° C. before adding the substrate to initiate the enzyme reaction, which was terminated after 30 minutes by heat inactivation. The data represent one of the two experiments, the PGE2 analysis from each sample was done in triplicates n=3. The p value is a comparison between control and experimentals.

COX-2 [4] = assay: COX-2 expression in cells/cartilage (general statement); assay type: cell-based; settings: words
NOS = NOS expression in LPS-stimulated murine macrophages; assay type: cell-based; settings: FIG. 2; LPS 100 ng/ml; words
Description: RAW 263.7 cells were grown as previously described (Amin et al, 1995b). Murine macrophages stimulated with 100 ng/ml LPS were incubated with CMT-3 or tunicamycin (a glycosylation inhibitor). […] Nitrite and PGE2 were estimated as previously described (Amin et al, 1995b). It is quite possible that CMT-3 may inhibit COX-2 and PGE2 production by post translational modification of COX-2 which may be similar to tunicamycin inhibition. The data represents the mean±SD evaluated by T test (n=3).

iNOS mRNA = settings: Amin et al, 1997b; words; cited from earlier work
[5] = Experiment II, LPS 100 ng/ml, compound 10 μg/ml, 16 hours

SMILES: NC(=O)C1=C(O)C2(O)C(=O)C3=C(O)c4c(O)cccc4CC3CC2CC1=O (stereo not shown) [CMT-3, 6-demethyl-6-deoxy-4-dedimethylaminotetracycline]
- PGE2 accumulation (RAW 264.7 cells [1]; 16 h, 10 ug/mL): 8.7 ± 2.4 ng/mL
- PGE2 accumulation (RAW 264.7 cells [1]; [5]): 6.5 ± 0.5 ng/mL
- Effect on L-NMMA induced PGE2 production (RAW 264.7 cells [1]; FIG. 1, CMT-3+L-NMMA, LPS 100 ng/ml, words): blocks L-NMMA induced PGE2 production
- Effect on PGE2 production (RAW 264.7 cells [1]; FIG. 1, LPS 100 ng/ml, 16 hours, words): blocks both NO and PGE2 production
- Effect on PGE2 production (RAW 264.7 cells [1]; FIG. 2, LPS 100 ng/ml, words): inhibit
- inhibition at 10 µg/mL (RAW 264.7 cells [1]; Experiment I, LPS 100 ng/ml, compound 10 μg/ml, 16 hours): 66%
- inhibition at 10 µg/mL (RAW 264.7 cells [1]; [5]): 67%
- Effect on COX-2 activity (RAW 264.7 cells [1]; independent of intracellular NO, words): inhibits COX-2 activity independent of intracellular NO concentrations
- Nitrite (RAW 264.7 cells [2]; Experiment I, 16 hours): 24.7 µM
- Nitrite (RAW 264.7 cells [2]; Experiment II, 16 hours): 11.7 µM
- Effect on NO production (RAW 264.7 cells [2]; FIG. 1, 16 hours): blocks both NO and PGE2 production
- Effect on NO production (RAW 264.7 cells [2]; FIG. 2): inhibit
- inhibition at 10 µg/mL (RAW 264.7 cells [2]; Experiment I, 16 hours): 48%
- inhibition at 10 µg/mL (RAW 264.7 cells [2]; Experiment II, 16 hours): 46%
- Effect on NO production (bovine chondrocytes): inhibit NO and PGE2 production
- Nitrite (OA-affected cartilage; Table 2, 5 μg/ml): 75.0 ± 25.0 µM
- Effect on NO production (OA-affected cartilage; human OA-affected cartilage, words): significantly inhibit; also recorded: inhibiting NO production
- Effect on specific activity of COX-2 (COX-2 [3]; CMT-3 27 μM, CMT-8 27 μM, aspirin 56 μM, indomethacin 28 μM, words): significantly inhibited the specific activity of COX-2
- COX-2 Specific Activity (COX-2 [3]; Table 3, cell-free extracts, 10 μg (aspirin amount not given)): 2.8 ± 4.0 PGE2 ng/mg protein
- Effect on COX-2 expression (COX-2 [4]): inhibits COX-2 expression and PGE2 production
- Effect on NOS expression (NOS): inhibit
- Effect on iNOS mRNA expression (iNOS mRNA): inhibiting iNOS mRNA expression
